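Each compound was tested at five concentrations against cells in 96-well plates for 48 hours. Abbreviation: GI50, concentration required for 50% inhibition of growth. TGI denotes the concentration required for complete inhibition of growth.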
Columns and labels:
Experiment in all cases: NCI tumour cell line growth inhibition, 48 h
A498 renal = test system: A498 renal
HT29 colon = test system: HT29 colon
MOLT-4 leukemia = test system: MOLT-4 leukemia
OVCAR-4 ovarian = test system: OVCAR-4 ovarian
PC-3 prostate = test system: PC-3 prostate
SK-OV-3 ovarian = test system: SK-OV-3 ovarian
SNB-19 CNS = test system: SNB-19 CNS
SW-620 colon = test system: SW-620 colon
TK-10 renal = test system: TK-10 renal
UO-31 renal = test system: UO-31 renal

Structure (SMILES)	TGI (A498 renal)	TGI (HT29 colon)	TGI (MOLT-4 leukemia)	TGI (OVCAR-4 ovarian)	TGI (PC-3 prostate)	TGI (SK-OV-3 ovarian)	TGI (SNB-19 CNS)	TGI (SW-620 colon)	TGI (TK-10 renal)	TGI (UO-31 renal)	GI50 (A498 renal)	GI50 (HT29 colon)	GI50 (MOLT-4 leukemia)	GI50 (OVCAR-4 ovarian)	GI50 (PC-3 prostate)	GI50 (SK-OV-3 ovarian)	GI50 (SNB-19 CNS)	GI50 (SW-620 colon)	GI50 (TK-10 renal)	GI50 (UO-31 renal)
CCOC(=O)n1c2ccccc2c(=O)n1CCO	> 100 µM	> 100 µM	> 100 µM	> 100 µM	> 100 µM	> 100 µM	> 100 µM	> 100 µM	> 100 µM	> 100 µM										
Cc1nn2c(-c3nc4cc(Cl)c(Cl)cc4[nH]3)c(-c3ccc(F)cc3)nc2s1	8.37 µM	> 100 µM	> 100 µM	0.781 µM	> 100 µM	4.46 µM	> 76.8 µM	> 100 µM	4.69 µM	3.93 µM	2.09 µM	1.91 µM	> 100 µM	0.257 µM	9.29 µM	1.98 µM	5.18 µM	10.2 µM	2.19 µM	1.64 µM
Cc1cc(-c2ccco2)cc(C)c1/C=C/c1cncc(-c2nn[nH]n2)c1	> 25 µM	> 25 µM	> 25 µM	> 25 µM	> 25 µM	> 25 µM	> 25 µM	> 25 µM	> 25 µM	> 25 µM	> 25 µM	> 25 µM	> 25 µM	> 25 µM	> 25 µM	> 25 µM	> 25 µM	> 25 µM	> 25 µM	> 25 µM
CCN(CC)C(=O)CCCCCn1c2ccccc2c2c3c(c4c5ccccc5[nH]c4c21)C(=O)N(O)C3=O	20.3 µM	4.44 µM	6.13 µM	> 100 µM	52.9 µM	92.1 µM	> 100 µM	> 100 µM	64 µM	4.22 µM	2.86 µM	2.22 µM	2.05 µM	5.06 µM	3.19 µM	22.2 µM	4.7 µM	4.29 µM	3.64 µM	1.72 µM
Oc1ccc(-c2[nH]c3ccccc3c2-c2nc3ccccc3o2)cc1	14.9 µM	11.5 µM	41.3 µM	14.7 µM	18.5 µM	17.3 µM	22.1 µM	13.4 µM	16.8 µM	13.9 µM	2.18 µM	3.65 µM	6.49 µM	2.14 µM	3.35 µM	5.03 µM	6.77 µM	3.04 µM	5.49 µM	0.893 µM
NCC(Cc1ccccc1)P(=O)(O)O (stereo not drawn)	> 100 µM	> 100 µM	> 100 µM	> 100 µM	> 100 µM	> 100 µM	> 100 µM	> 100 µM	> 100 µM	> 100 µM										
Cc1ccccc1CNc1c2ccccc2nc2ccccc12	2.96 µM	10 µM	8.14 µM	6.4 µM	8.79 µM	9.91 µM	13.7 µM	5.64 µM	11.7 µM	3.91 µM	1.42 µM	1.97 µM	2.67 µM	1.92 µM	1.88 µM	2.62 µM	3.27 µM	1.77 µM	2.78 µM	1.33 µM
COc1cc2c(cc1OC)C(SC)C(=O)N(Cc1cccc(OC)c1OC)CC2 (stereo not drawn)	> 54.9 µM	17.1 µM	45.5 µM	98.5 µM	> 69 µM	> 100 µM	> 100 µM	> 100 µM	> 100 µM	70 µM										
COc1cc(OC)c(/C=C/C(=O)c2c(N)cc(OC)cc2OC)c(OC)c1		14.6 µM	> 100 µM	> 100 µM	> 100 µM	> 100 µM	> 100 µM	> 100 µM	> 100 µM	> 100 µM	0.463 µM	3.3 µM	1.02 µM	13.6 µM	1.77 µM	0.767 µM	0.654 µM	0.326 µM	6.64 µM	1.36 µM
CCN(CCNc1ccc(C)c2sc3cc(Cl)ccc3c(=O)c12)CC(C)(C)O	14.9 µM	4.86 µM	73.7 µM	> 100 µM	> 100 µM	20.4 µM	25.8 µM	13.4 µM	13.9 µM	3.53 µM	3.47 µM	2 µM	15.5 µM	24.6 µM	12 µM	6.21 µM	10.1 µM	3.64 µM	3.59 µM	1.3 µM
Cc1ccc(-c2nc(C(Cl)Cl)nc3cc(C)nn23)cc1	4.7 µM	> 100 µM	> 100 µM	3.87 µM	> 100 µM	8.62 µM	> 100 µM		> 100 µM	> 100 µM	1.75 µM	0.458 µM	1.82 µM	1.07 µM	2.55 µM	2.28 µM	2.34 µM		3.55 µM	3.38 µM
O=C(Nc1nc2c(s1)CCc1c-2c(Br)n(Cc2ccccc2)c1Br)c1ccccc1	28.9 µM	> 100 µM	64.4 µM	7.54 µM	> 100 µM	16.3 µM	> 100 µM	> 100 µM	7.85 µM	39.9 µM	4.7 µM	4.71 µM	22.7 µM	1.8 µM	4.26 µM	3.23 µM	7.41 µM	21.4 µM	2.98 µM	3.19 µM
CCN(CC)CCS(=O)(=O)CCNc1ccnc2cc(Cl)ccc12	8.28 µM	2.29 µM	49 µM	> 62.2 µM	> 100 µM	70.2 µM	> 100 µM	12.5 µM	4.3 µM	8.8 µM	2.25 µM	0.868 µM	1.34 µM	2.07 µM	3.82 µM	6.58 µM	6.69 µM	0.608 µM	1.07 µM	0.682 µM
Cc1n(Cc2ccc3ccccc3n2)cc[n+]1Cc1ccc2ccccc2c1	10.2 µM	9.61 µM	10.6 µM	11.3 µM	10.6 µM	5.03 µM	12.1 µM	13.3 µM	7.96 µM	36.1 µM	1.84 µM	0.454 µM	0.948 µM	0.342 µM	0.467 µM	1.16 µM	0.438 µM	1.82 µM	1.94 µM	13.6 µM
O=CC(O)C(O)C(OC1OC(CO)C(O)C(O)C1O)C(O)CO (stereo not drawn) (tested in a mixture with another compound)	> 100 µM	> 100 µM		> 100 µM	> 100 µM	> 100 µM	> 100 µM	> 100 µM	> 100 µM	> 100 µM										
CCC1=C(c2ccc(OC)cc2)CC[C@]2(CCNC2=O)[C@@H]1C	> 100 µM	59.6 µM	39.7 µM	69.5 µM	> 77 µM	97.1 µM	> 100 µM	> 100 µM	> 100 µM	66.3 µM										
C=CC[PH+](c1ccccc1)c1ccccc1.C=CC[PH+](c1ccccc1)c1ccccc1.[Pt+2].[S-]c1ncccn1.[S-]c1ncccn1	> 100 µM	> 100 µM	> 100 µM	> 100 µM	37.7 µM	> 100 µM	> 100 µM	29.7 µM	46.2 µM	18 µM	11.5 µM	13.5 µM	3.26 µM	5.35 µM	11 µM	> 100 µM	58.9 µM	4.75 µM	5.8 µM	3.75 µM
CC(C)C/C(=N\NC(=O)c1ccncc1)c1cc(Cl)ccc1O	45.7 µM	> 100 µM	20.8 µM	> 32.4 µM	73.5 µM	32.2 µM	> 100 µM	> 100 µM	> 100 µM	18.6 µM	2.12 µM	0.441 µM	0.29 µM	0.26 µM	1.01 µM	0.852 µM	1.66 µM	0.677 µM	0.348 µM	0.211 µM
CC/C(=C(/c1ccc(/C=C/C(=O)O)cc1)c1ccc2[nH]ncc2c1)c1ccc(F)cc1Cl	17.9 µM	32.4 µM	37.3 µM	27.9 µM	21.6 µM	30.8 µM	31.2 µM	28.5 µM	33.4 µM	24.7 µM	4.75 µM	13.3 µM	11.3 µM	12 µM	7.95 µM	16.7 µM	12.9 µM	12 µM	15.9 µM	11.2 µM
COC(=O)C1=Nc2ccc(F)cc2/C1=C/c1sc(=S)[nH]c1O	0.942 µM	11.9 µM	> 100 µM	23.8 µM	26.3 µM	31.3 µM	> 52.9 µM	> 100 µM	19.3 µM	5.14 µM	0.202 µM	0.559 µM	0.236 µM	0.692 µM	0.128 µM	0.513 µM	0.179 µM	0.0499 µM	0.848 µM	0.457 µM
Nc1n[nH]c2ccc([C@@H]3Nc4c(F)cc5[nH]ncc5c4[C@H]4C5CCC(C5)[C@@H]34)cc12 (stereo partly drawn)	0.337 µM	> 34.4 µM	> 45.5 µM	> 85.8 µM	> 46.2 µM	> 58.2 µM	> 62.9 µM	> 49.1 µM	> 79.4 µM	> 52.6 µM	0.0413 µM	0.317 µM	0.439 µM	5.81 µM	0.331 µM	0.686 µM	0.515 µM	0.318 µM	5.6 µM	0.587 µM
CN(C)CCS(=O)(=O)Nc1cc(-c2ccc3ncnc(Nc4ccc(F)c(Cl)c4)c3c2)cnc1Cl	1.17 µM		0.69 µM	> 100 µM	> 100 µM	1.64 µM	> 100 µM	> 38 µM	1.31 µM	1.69 µM	0.336 µM		0.257 µM	1.29 µM	0.536 µM	0.261 µM	1.91 µM	1.2 µM	0.188 µM	0.259 µM
Cc1ccc(NC(=O)c2ccc(NC3=C(Cl)C(=O)N(Cc4ccccc4)C3=O)cc2)cc1Cl	26.9 µM	51.3 µM	15.1 µM	66.5 µM	25.1 µM	54.6 µM	> 100 µM	11.8 µM	40.5 µM	2.71 µM	0.854 µM	6.81 µM	2.35 µM	14.7 µM	12.5 µM	22.7 µM	60.5 µM	1.99 µM	17.4 µM	1.41 µM
Cn1c(CC(O)c2nc3ccccc3n2C)nc2ccccc21 (stereo not drawn)	> 51.1 µM	> 54.3 µM	> 27.9 µM	> 30.1 µM	> 58.8 µM	> 45.2 µM	> 87.7 µM	> 47 µM	> 36.4 µM	> 9.39 µM										
O=S(=O)(NCCCNc1nccc(-c2c(-c3cccc(F)c3)nc3occn23)n1)c1cccc2ccccc12	> 100 µM		> 100 µM	> 100 µM	> 100 µM	> 100 µM	> 100 µM	> 100 µM	> 100 µM	> 100 µM	8.36 µM		3.54 µM	7.66 µM	3.38 µM	3.76 µM	9.41 µM	6.91 µM	11 µM	3.25 µM
COc1ncc2cc1NS(=O)(=O)c1cccc(c1)C(=O)NCC1=CC=C(S1)c1ncnc3c1SC2=C3C	0.548 µM	1.74 µM		10.5 µM	2.77 µM	4.07 µM		3.31 µM	10.4 µM	1.7 µM	0.188 µM	0.201 µM		1.22 µM	0.0797 µM	0.378 µM		0.49 µM	0.51 µM	0.0733 µM
CC(=O)OC1COC(Oc2c(C)c3c4c(c2O)[C@@H](C)CC[C@@H]4[C@@H](C)C[C@H]3C=C(C)C)C(O)C1O (stereo partly drawn)	30 µM		22.5 µM	86.5 µM	31.1 µM	44 µM	73.7 µM		31 µM	> 100 µM	14.7 µM		2.24 µM	25.6 µM	14.4 µM	20.7 µM	28.8 µM		16.3 µM	25.1 µM
O=[N+]([O-])c1ccc(/C=C\c2ccc3c(c2)OCO3)c([N+](=O)[O-])c1	46.7 µM	40.3 µM	33.8 µM		63.4 µM	35.4 µM	33.6 µM	41.6 µM	46.3 µM	54.5 µM										
